Source: patent publication US20120177606A1, “LACTIC ACID BACTERIUM FOR INHIBITING PRODUCTION OF GASTRIC ACID AND GASTRIN” (SNOWDEN KABUSHIKIKAISHA, priority 2011, published 2012)
“Also recorded” adds a separate entry of the source.

Test system: gastrin production
Test: Side effects of continuous PPI administration (stomach weight ratio, gastrin-positive cells) and alleviation by lived No. 1088
Assay type: in vivo
Details: PBS-administered mice, Omeprazole 200 μg subcutaneously every other day for 4 or 8 weeks, vs no PPI
Method: Six groups of mice were prepared, each containing five 4-week old GF-Balb/c male mice. Three of the groups were administered orally with a suspension prepared by suspending 1×10^9 CFU of lived No. 1088 in PBS, and the remaining three groups were administered orally with an equal volume of PBS.
When the mice reached 8 weeks of age, a treatment was started for one group of the No. 1088-administered mice and one group of the PBS-administered mice in which the mice were administered subcutaneously every other day with a solution prepared by dissolving 200 μg of the PPI Omeprazole (AstraZeneca Ltd.) in 200 μL of PBS (8 weeks of continuous PPI administration). […]
Upon reaching 16 weeks of age, the mice of each group were killed, and following measurement of the bodyweight, the stomach was extracted from each mouse, the stomach contents (feed and the like) were removed by washing with PBS, and the stomach weight was measured. […]
The stained tissue sections were subjected to observation and image capture using a fluorescence microscope BZ-9000. […]
Using the bodyweights and stomach weights measured upon extraction of the stomachs from the samples of each group, the ratio (%) of stomach weight to bodyweight was calculated for each group. […]

## COc1ccc2[nH]c([S+]([O-])Cc3ncc(C)c(OC)c3C)nc2c1 (centres unmarked) [PPI, Omeprazole]
  number of gastrin-producing cells: increased; also recorded: significant increases
  stomach weight ratio (stomach weight to bodyweight): significant increases
